# Experimental data as given in US10370364B1, “Substituted chromenes for treatment of fibrosis or non-alcoholic steatohepatitis” (OSTEONEUROGEN INC., priority 2018, dated 2019).
# What was measured:
# [1] = Solubility in phosphate buffer (pH 7.4); conditions: phosphate buffer pH 7.4, 1 mg/ml added, 16 hours, HPLC-UV
# Procedure: The compound of the present invention was added to phosphate buffer (pH 7.4) at a concentration of 1 mg/ml and stirred. After 16 hours, the sample was filtered through a filter, and the supernatant was analyzed by HPLC-UV, thereby determining the content of compound dissolved.
# STAM mice = experiment: Non-alcoholic steatohepatitis animal model (STAM mice), NAFLD activity score; assay type: in vivo; conditions: 30 mpk oral
# Procedure: STAM mice (SMC Laboratories, Inc., Japan), which are non-alcoholic steatohepatitis animal models, were used as experimental animals. These animal models were administered with streptozotocin immediately after birth, and fed with high-fat-diet after 3 weeks. Then, in the mouse model, non-alcoholic steatohepatitis occurred at 6 to 9 weeks, and liver fibrosis, cirrhosis and liver cancer occurred within 9 to 12 weeks.
# Over 6 to 9 weeks after administration of streptozotocin, the compound of the present invention, dissolved in a mixture solution of Tween80 and 0.5% CMC aqueous solution (1:99 (v/v)) (Formulation Example 2), was orally administered to the animal models once a day (five times a week). As controls, telmisartan and OCA (obeticholic acid) were administered in the same manner.
# At […] after administration of streptozotocin (a time point after 3-week administration of the compound), the mice were sacrificed, the liver of each mouse was dissected, the invasion of inflammatory cells was observed by […] of the liver tissue, and fibrosis of the liver tissue was observed by Sirius Red staining (see FIG. 42). In addition, the degrees of inflammation, fibrosis, liver cell ballooning and adipose accumulation observed were measured, data integration was performed, and the NAFLD (nonalcoholic fatty liver disease) activity score was statistically processed by t-test.
# C57BL/6 mice = experiment: Bleomycin-induced pulmonary fibrosis animal model; assay type: in vivo
# Text: 5-week-old male C57BL/6 mice (weighed 18.2 to 20.5 g) (KOATECH, Korea) were used as experimental animals and divided into several groups, each consisting of 5 animals.
# The experimental animals were housed in a housing box having a size of 369 L×156 W×132H (mm) (EU, USA, UK GL compliance) made of a polysulfone material in a SPF (Specific Pathogen Free) and BSL (Bio Safety Level) 2 grade facility. The number of animals in each housing box was 2 to 3 during the period of quarantine and acclimatization and was also 2 to 3 during the experimental period, and the housing conditions were set to a temperature of 22±2° C., a relative humidity of 50.0±15.0%, a ventilation cycle of 10 to 20 times/hr, a light-dark cycle (a photoperiod) of 12 hr/day (07:00 to 19:00), and an illumination intensity of 150 to 300 Lux.
# Pulmonary fibrosis was induced by injecting a bleomycin solution directly into the lungs via the trachea according to the intratracheal instillation (IT) method of Kremer, Laxer and Berkman et al. Specifically, C57BL/6J mice were anesthetized through inhalation with 70% N2O and 30% O2 gas and 1.5% isoflurane, and the skin of the anterior neck thereof was excised and the organs under the muscle thereof were exposed and then carefully excised using ophthalmic surgical scissors. 50 μL of a solution of bleomycin in distilled water was injected directly into the lungs all at once via the excised organ by use of a 1 mL syringe fitted with a 19-gauge injection needle having a blunt tip. Immediately after the injection, the excised skin of the anterior neck was sutured and the mice were allowed to recover from the anesthetic, and then housed in a general housing cage. The administration of bleomycin was performed using a visual instillobot, and bleomycin-HCl 40 μg/50 μL was administered once and a pulmonary fibrosis induction period of 12 days was set.
# The compound of the present invention was used after dissolution in 30% HPCD aqueous solution (Formulation Example 5), and the dose for each individual was calculated based on the recent body weight thereof. 12 Days after the administration of bleomycin, the compound of the present invention was administered once a day (5 times a week) for 2 weeks. As a control, pirfenidone which is a therapeutic agent for idiopathic pulmonary fibrosis was administered in the same manner.
# On 15 days after administration of the compound, the mice were sacrificed, and then the right lung of each mouse was dissected and the weight thereof was measured. […] In particular, it is noted that the inhibitory effect of the compound in the group administered at 10 mpk was the highest compared to that in the group administered at 50 or 100 mpk and was also higher than that in the group administered with pirfenidone 100 mpk.
# The amounts of hydroxyproline (HP) and collagen in the dissected right lung were measured using a known method.
# Histopathology collagen morphometry of the dissected left lung tissue was performed using a known method (calculating the area of collagen in an optical image obtained by Sirius red staining of the lung tissue sample).
# The pathological conditions of the left lung tissue dissected using a known method were examined by H&E and Sirius Red staining. […] In particular, it is noted that the inhibitory effect of the compound in the group administered at 10 mpk was the highest compared to that in the groups administered at other concentrations.
# In order to examine the effect of each treatment in this Experiment on the liver, the liver of each of the sacrificed mice was dissected, and the pathological conditions of the liver tissue were examined by H&E staining.
# [2] = Concentration of compound in plasma and lung of bleomycin fibrotic mice; assay type: in vivo; conditions: 1 hour after final administration; pirfenidone 100 mpk, Compound 1 10-100 mpk PO
# Procedure: The amounts of the compound present in the plasma and lung of each of the sacrificed mice (finally administered with each compound at 1 hour before sacrifice) were measured. […] If it is attempted to formulate the compound of the present invention in various manners, it is expected that the compound of the present invention can effectively treat fibrosis even at lower concentrations.
compound,measurement,setting,value
"CC/C(=C(/CC)c1ccc(O)cc1)c1ccc(O)cc1 [Diethyl stilbesterol, reference compound]",Solubility,[1],4.50 µg/mL
"CCCc1nc2c(C)cc(-c3nc4ccccc4n3C)cc2n1Cc1ccc(-c2ccccc2C(=O)O)cc1 [telmisartan, reference compound]",NAFLD activity score (t-test),STAM mice,statistically significant anti-NASH effects
"Cc1ccc(=O)n(-c2ccccc2)c1 [Pirfenidone, reference compound]",Protection Collagen %,C57BL/6 mice; 100 mpk PO,34%
same,"Mean Collagen % (histopathology collagen morphometry, left lung)","C57BL/6 mice; 100 mpk PO, Sirius red",4.1%
same,"pathological condition of liver tissue, H&E staining","C57BL/6 mice; bleomycin mice, 100 mpk",showed hepatotoxic symptoms
same,concentration of the compound in the lung,[2],high
same,concentration of the compound in the plasma,[2],high
